Test results taken from patent US20250320211A1, “COMPOUND, COMPOSITION, AND ELECTROPHOTOGRAPHIC PHOTORECEPTOR” (MITSUBISHI CHEMICAL CORPORATION, priority 2022, published 2025).

Experiment: Evaluation of solubility in organic solvent
Assay type: physicochemical
Conditions: toluene/2-propanol mixed solvent
Method: Compounds 1 to 2 or Comparative Compounds 1 to 5 were respectively added to a mixed solvent of toluene/2-propanol=3/7 (mass ratio) at room temperature (25° C.) so as to have a concentration of 8% by mass, and stirred for 10 minutes with a rotor without heating or cooling. The state of dissolution was then visually observed, and the solubility was evaluated according to the following criteria.
When any residue was observed, the mixture was heated in a water bath at a constant temperature (40° C.) for 10 minutes as described below, and the state of dissolution was visually observed again to evaluate the solubility.

**Q.** Which “solubility in organic solvents (in words)” value (from here on “solubility”) does the source give for C=CC(=O)OCCOC(=O)CCC(=O)OCC(CC(C)C)N1C(=O)c2ccc3c4ccc5c6c(ccc(c7ccc(c2c37)C1=O)c64)C(=O)N(C(COC(=O)CCC(=O)OCCOC(=O)C=C)CC(C)C)C5=O (stereo not shown) [Comparative Compound 3] here?
**A.** poor solubility

**Q.** With C=C(C)C(=O)OCC(COC(=O)C(=C)C)OC(=O)CCC(=O)OCC(CC(C)C)N1C(=O)c2ccc3c4ccc5c6c(ccc(c7ccc(c2c37)C1=O)c64)C(=O)N(C(COC(=O)CCC(=O)OC(COC(=O)C(=C)C)COC(=O)C(=C)C)CC(C)C)C5=O (stereo not shown) [Comparative Compound 4] as the compound, how does the “solubility” value read?
**A.** excellent solubility in organic solvents

**Q.** For C=C(C)C(=O)OCC(COC(=O)C(=C)C)OC(=O)CCC(=O)OCC(COC(=O)CCC(=O)OC(COC(=O)C(=C)C)COC(=O)C(=C)C)N1C(=O)c2ccc3c4ccc5c6c(ccc(c7ccc(c2c37)C1=O)c64)C(=O)N(C(COC(=O)CCC(=O)OC(COC(=O)C(=C)C)COC(=O)C(=C)C)COC(=O)CCC(=O)OC(COC(=O)C(=C)C)COC(=O)C(=C)C)C5=O [Comparative Compound 5], which “solubility” value is on record?
**A.** excellent solubility in organic solvents

**Q.** For CCCCCCC(CCCCCC)N1C(=O)c2ccc3c4ccc5c6c(ccc(c7ccc(c2c37)C1=O)c64)C(=O)N(C(CCCCCC)CCCCCC)C5=O [Comparative Compound 2], which “solubility” value is on record?
**A.** poor solubility
